Measured values as given in PubChem BioAssay (NCI).
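Assay format: 96-well plates, 48-hour exposure. The concentration for full growth arrest is given as TGI.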

Assays:
Assay in all cases: DTP human tumour cell line panel, 48 h
T-47D breast = system: T-47D breast
SF-295 CNS = system: SF-295 CNS
HS 578T breast = system: HS 578T breast
HOP-92 NSCLC = system: HOP-92 NSCLC
HL-60(TB) leukemia = system: HL-60(TB) leukemia
ACHN renal = system: ACHN renal
K-562 leukemia = system: K-562 leukemia
RPMI-8226 leukemia = system: RPMI-8226 leukemia
OVCAR-8 ovarian = system: OVCAR-8 ovarian
OVCAR-5 ovarian = system: OVCAR-5 ovarian
A549 NSCLC = system: A549 NSCLC
RXF 393 renal = system: RXF 393 renal
MDA-MB-435 = system: MDA-MB-435
NCI-H23 lung = system: NCI-H23 lung
HCC-2998 colon = system: HCC-2998 colon
SR leukemia = system: SR leukemia
SW-620 colon = system: SW-620 colon
UO-31 renal = system: UO-31 renal
SK-MEL-28 melanoma = system: SK-MEL-28 melanoma
TK-10 renal = system: TK-10 renal

Row | SMILES | TGI (T-47D breast) [µM] | TGI (SF-295 CNS) [µM] | TGI (HS 578T breast) [µM] | TGI (HOP-92 NSCLC) [µM] | TGI (HL-60(TB) leukemia) [µM] | TGI (ACHN renal) [µM] | TGI (K-562 leukemia) [µM] | TGI (RPMI-8226 leukemia) [µM] | TGI (OVCAR-8 ovarian) [µM] | TGI (OVCAR-5 ovarian) [µM] | TGI (A549 NSCLC) [µM] | TGI (RXF 393 renal) [µM] | TGI (MDA-MB-435) [µM] | TGI (NCI-H23 lung) [µM] | TGI (HCC-2998 colon) [µM] | TGI (SR leukemia) [µM] | TGI (SW-620 colon) [µM] | TGI (UO-31 renal) [µM] | TGI (SK-MEL-28 melanoma) [µM] | TGI (TK-10 renal) [µM]
1 | Cc1nc(-c2cccnc2)sc1C(=O)CC(=O)C(=O)Nc1cccc(NC(=O)C(=O)CC(=O)c2sc(-c3cccnc3)nc2C)n1 | > 100 | > 100 | > 100 | > 100 | > 100 | > 100 | > 100 | > 100 | > 100 | > 100 | > 100 | > 100 | > 100 | > 100 | > 100 | > 100 | > 100 | > 100 | > 100 | 
2 | CC(C)CC(C#CCCOC(=O)c1ccccc1)OC(=O)c1ccccc1 (stereo unspecified) | > 10 | > 10 | > 10 | > 10 | > 10 | > 10 | > 10 |  | > 10 | > 10 | > 10 | > 10 | > 10 | > 10 | > 10 | > 10 | > 10 | > 10 | > 10 | > 10
3 | COc1cc(/C=C2\N=C(c3ccccc3)N(c3nc4ccccc4s3)C2=O)cc(OC)c1OC | > 100 | > 100 | > 100 | 74.5 | > 100 | 84.5 | > 100 | 16.7 | > 100 | > 100 | > 100 | 50.7 | 84.6 | > 100 | > 100 | 42.5 | > 100 | > 100 | > 100 | > 100
4 | Cc1cn(CCCCOC(=O)NC(CCCN=C(N)N)C(=O)O)c(=O)[nH]c1=O (stereo unspecified) | > 100 | > 100 | > 100 | > 100 | > 100 | > 100 | > 100 | > 100 | > 100 | > 100 | > 100 | > 100 | > 100 | > 100 | > 100 | > 100 | > 100 | > 100 | > 100 | > 100
5 | CC(C)(C)OC(=O)NCC(c1c[nH]c2cc(Br)ccc12)c1c[nH]c2cc(Br)ccc12 | 35.2 | 36.2 | 46.4 | 28.6 | 64.2 | 30.3 | > 100 | > 100 | 36.5 | 31.4 | 44.7 | 32 | 31.9 | 34.2 | 38.4 | > 100 | > 100 | 34.5 | 83.4 | 35.9
6 | Cc1cc(-c2nc3ccc(F)cc3s2)ccc1NC(=O)C(N)CCCCN (stereo unspecified) | 16.1 | 19.3 | 27.1 | 27.7 | 9.78 | 25.6 | 8.2 | 12.5 | 22.3 | 22.5 | 5.54 | 25.3 | 5.34 | 18.5 | 21.4 | 8.18 | 7.93 | 16.1 | 34.8 | 14.5
7 | CCCCCCCCCCCCCC(=O)OCC(CCS(=O)(=O)O[C@H]1CC[C@@]2(C)C(=CC[C@@H]3C2CC[C@]2(C)C(=O)CCC32)C1)OC(=O)CCCCCCCCCCCCC (stereo partly specified) | > 100 | > 100 | > 100 | > 100 | > 100 | > 100 | > 100 | > 100 |  | > 100 | > 100 | > 100 | > 100 | > 100 | > 100 | > 100 | > 100 | > 100 | > 100 | > 100
8 | CCN(CC)CCOCCOCC1(c2ccc(Cl)c(Cl)c2)CCCCC1 | 17.7 | 15.1 | 13.8 | 17.7 | 21 | 28.5 | 12.7 | 6.45 | 28.8 | 24 | 23.1 | 17.6 | 13.6 | 24.5 | 14.8 | 26.8 | 21.9 | 12.9 | 12.3 | 21.7
9 | NS(=O)(=O)c1ccc(N=Nc2ccc(O)cc2)cc1 | > 100 | > 100 | > 100 | > 100 | > 100 | > 100 | > 100 | > 100 | > 100 | > 100 | > 100 | > 100 | > 100 | > 100 | > 100 | > 100 | > 100 | > 100 | > 100 | > 100
10 | COC(=O)c1ccc(Oc2nc3ccc(C(F)(F)F)cc3nc2-c2ccccc2)cc1 | > 100 | > 100 | > 100 | > 100 | > 100 | > 100 | > 100 | > 100 | > 100 | > 100 | > 100 | > 100 | > 100 | > 100 | > 100 | > 100 | > 100 | > 100 | > 100 | > 100
11 | N#CC12CC(C=O)=C(N)C1(C#N)CC(C=O)=C2N (stereo unspecified) | > 100 | > 100 | > 100 | > 100 | > 100 | > 100 | > 100 | > 100 | > 100 | > 100 | > 100 | > 100 | > 100 | > 100 | 80 | > 100 | > 100 | > 100 | > 100 | > 100
12 | CCOC(=O)C(=CNc1ccc(S(N)(=O)=O)cc1)C(=O)OCC | > 100 | > 100 | > 100 | > 100 | > 100 | > 100 | > 100 | > 100 | > 100 | > 100 | > 100 | > 100 | > 100 | > 100 | > 100 | > 100 | > 100 | > 100 | > 100 | > 100
13 | C[C@@H](c1ccccc1)N1C[C@@H](c2ccc3c(c2)OCO3)[C@@H]2C(=O)CCC[C@@H]21 | > 100 | > 100 | > 100 | > 100 | > 100 | 67.2 | > 100 | 92.8 | > 100 | > 100 | > 100 | > 100 | > 100 | > 100 | 76.7 | > 100 |  | > 100 | 76 | > 100
14 | CCOc1cc2c(cc1O)C=C[C@@H]1[C@@H]2CC[C@]2(C)[C@@H](O)CC[C@@H]12 | 77.4 | 5.45 | > 100 | > 100 | 7.58 | > 100 | > 100 | > 100 | > 62.4 | > 100 | > 100 | > 96.1 | 1.36 | > 48.1 | 18.7 | 23.7 | > 35.3 | > 86.1 | > 100 | > 92
15 | CC1(C)C(CBr)=[N+]([O-])C(C)(C)N1O | 5.24 | > 10 | > 10 | 5.5 | > 6.81 | > 8.86 | > 8.04 | > 8.63 | > 10 | > 10 | > 10 | 8.15 | > 8.08 | > 10 | > 10 | > 10 | 4.86 | > 10 | > 10 | > 10
16 | CCOC(=O)C1=NN(c2ccc(C)cc2)C2(c3ccccc3)C=C(c3ccccc3)N(C)CCN12 (stereo unspecified) | > 100 | > 100 | > 100 | > 100 | > 100 | > 100 | > 100 | > 100 | > 100 | > 100 | > 100 | > 100 | > 100 | > 100 | > 100 | > 100 | > 100 | > 100 | > 100 | > 100
17 | CC12CP(=O)(O)CC1C2(Cl)Cl (stereo unspecified) | > 100 | > 100 | > 100 | > 100 | > 100 | > 100 | > 100 | > 100 | > 100 | > 100 | > 100 | > 100 | > 100 | > 100 | > 100 | > 100 | > 100 | > 100 | > 100 | > 100
18 | CC(C)(C)n1[nH]c(=O)n(C(C)(C)C)c1=O | > 100 | > 100 | > 100 | > 100 | > 100 | > 100 | > 100 | > 100 |  | > 100 | > 100 | > 100 | > 100 | > 100 | > 100 | > 100 | > 100 | > 100 | > 100 | > 100
19 | C/C(CC(O)(C(F)(F)F)C(F)(F)F)=N\NC(N)=S | > 10 | > 10 | > 10 | > 10 | > 10 | > 10 | > 10 | > 10 | > 10 |  | > 10 | > 10 | > 10 | > 10 | > 10 | > 10 | > 10 | > 10 | > 10 | > 10
20 | CC(=O)OC(OC(C)=O)c1c2ccccc2cc2ccccc12 | 85.2 | 45.3 | 78.3 | 57.5 | > 100 | 61.4 | 27.8 | 87.2 | 41.8 | 75.6 | 65.9 | 31 | > 100 | > 100 | 40.5 | 56.3 | > 100 | 53 |  | 61.2
21 | NC1=Nc2ccccc2Sc2nccn21 | 98.9 | 43.7 | 79.1 | 40.8 | 45 | 91 | 50 | 44.5 | > 100 | > 100 | > 100 | 56.5 | 59 | 52.2 | 43 | 80.8 | > 100 | 63.9 | > 100 | 72.6
22 | O=C1NCN(c2ccccc2)C12CCN(CCCN1CCN(CCOC(c3ccccc3)c3ccccc3)CC1)CC2 | 7.18 | 6.41 | 7.97 | 5.54 | 4.31 | 5.88 | 1.09 | 5.23 | 6.51 | 10.1 | 7.82 | 4.68 | 2.46 | 7.46 | 1.02 | 2.04 | 5.95 | 4.39 | 2.42 | 7.15
23 | C=CC(=C)CCC(Br)C(C)(C)Br (stereo unspecified) | > 100 | > 100 | > 100 | > 100 | 55.1 | > 100 | > 100 | > 100 | > 100 | > 100 | > 100 | > 100 | > 100 | > 100 | > 100 | > 100 | > 100 | > 100 | > 100 | > 100
24 | O=C(CSc1nc2ccc(I)cc2c(=O)n1Cc1ccccc1)NNC(=S)Nc1ccccc1 | > 100 | > 100 | > 100 | > 100 | > 100 | > 100 | > 100 | > 100 |  | > 100 | > 100 | > 100 | > 100 | > 100 | > 100 | 23.3 | > 100 |  | > 100 | > 100
